How the values were obtained:
[1] = Determination of the microsomal half-life / microsomal clearance; type: in vitro ADME; details: pH 7.4; human liver microsomes, 0.5 μM test substance, 0.25 mg protein/ml, NADPH, 37° C.; read-out: Human mCl (mikrosomal clearance)
Procedure: The metabolic stability of the compounds of the invention was determined in the following assay.
The test substances were incubated in a concentration of 0.5 μM as follows:
0.5 μM test substance are preincubated together with liver microsomes from different species (from rat, human or other species) (0.25 mg of microsomal protein/ml) in 0.05 M potassium phosphate buffer of pH 7.4 in microtiter plates at 37° C. for 5 min. The reaction is started by adding NADPH (1 mg/mL). After 0, 5, 10, 15, 20 and 30 min, 50 μl aliquots are removed, and the reaction is immediately stopped and cooled with the same volume of acetonitrile. The samples are frozen until analyzed. The remaining concentration of undegraded test substance is determined by MSMS. The half-life (T1/2) is determined from the gradient of the signal of test substance/unit time plot, it being possible to calculate the half-life of the test substance, assuming first order kinetics, from the decrease in the concentration of the compound with time. The microsomal clearance (mC1) is calculated from mC1=1n2/T1/2/(content of microsomal protein in mg/ml)×1000 [ml/min/mg] (modified from references: Di, The Society for Biomoleculur Screening, 2003, 453-462; Obach, DMD, 1999 vol 27. N 11, 1350-1359).

[2] = biological target: T1, human dopamine D2L receptors (long isoform) (Homo sapiens, UniProt P14416); assay: Dopamine D2L receptor binding ([125I]iodospiperone displacement); details: selectivity ratio, human D2L vs human D3 binding
T1 construct: expressed in transfected cells; host or cells: HEK-293
T1 sequence (P14416 whole entry, canonical isoform): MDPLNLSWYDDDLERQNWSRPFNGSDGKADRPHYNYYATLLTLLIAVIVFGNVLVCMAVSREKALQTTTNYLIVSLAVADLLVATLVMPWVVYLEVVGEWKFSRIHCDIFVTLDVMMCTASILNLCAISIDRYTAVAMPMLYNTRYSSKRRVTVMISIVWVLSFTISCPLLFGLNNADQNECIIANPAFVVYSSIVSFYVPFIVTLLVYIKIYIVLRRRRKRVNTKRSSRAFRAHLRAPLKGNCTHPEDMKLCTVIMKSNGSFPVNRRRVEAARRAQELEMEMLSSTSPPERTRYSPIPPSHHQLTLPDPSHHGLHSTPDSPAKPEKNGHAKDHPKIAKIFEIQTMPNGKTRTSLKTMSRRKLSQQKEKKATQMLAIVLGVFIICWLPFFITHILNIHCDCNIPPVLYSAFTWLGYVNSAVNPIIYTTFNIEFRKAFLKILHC
Procedure: The substance to be tested was either dissolved in methanol/Chremophor® (BASF SE) or in dimethyl sulfoxide and then diluted with water to the desired concentration.
Each assay mixture was run in triplicate. • The incubation buffer contained 50 mM tris, 120 mM NaCl, 5 mM KCl, 2 mM CaCl2, 2 mM MgCl2 and 0.1% bovine serum albumin, 10 μM quinolone and 0.1% ascorbic acid (prepared fresh daily). […] Each assay mixture was run in triplicate. • The incubation buffer contained 50 mM tris, 120 mM NaCl, 5 mM KCl, 2 mM CaCl2, 2 mM MgCl2 and 0.1% bovine serum albumin. The buffer was adjusted to pH 7.4 with HCl. c) Measurement and analysis: • After having been incubated at 25° C. for 60 minutes, the assay mixtures were filtered through a Whatman GF/B glass fiber filter under vacuum using a cell col-lecting device. The filters were transferred to scintillation viols using a filter transfer system. After 4 ml of Ultima Gold® (Packard) have been added, the samples were shaken for one hour and the radioactivity was then counted in a Beta-Counter (Packard, Tricarb 2000 or 2200CA).

Compound | microsomal CLint at 0.5 μM [1] | D2/D3, Ki (D2L)/Ki (D3) [2]
CC(C)(C)c1nc(C2CCC2)cc(N2CCN(CC[C@H]3C[C@H](NC(=O)[C@H]4CC[C@@H](O)CC4)C3)CC2)n1.O=C(O)C(F)(F)F [Compound 16, Cis-N-[trans-3-[2-[4-(2-tert-butyl-6-cyclobutyl-pyrimidin-4-yl)piperazin-1-yl]ethyl]cyclobutyl]-4-hydroxy-cyclohexanecarboxamide; 2,2,2-trifluoroacetic acid] | > 120 µL/min/mg | ++ (++ >20)
COCCc1cc(N2CCN(CC[C@H]3CC[C@H](NC(=O)[C@H]4C[C@@H](O)C4)CC3)CC2)nc(C(C)(C)C)n1 [Compound 18, cis-N-[trans-4-[2-[4-[2-tert-butyl-6-(2-methoxyethyl)pyrimidin-4-yl]piperazin-1-yl]ethyl]cyclohexyl]-3-hydroxy-cyclobutanecarboxamide] | 20 to 120 µL/min/mg | +++ (+++ >50)
CC(C)(C)c1cc(N2CCN(CC[C@H]3CC[C@H](NC(=O)[C@H]4CC[C@H](O)CC4)CC3)CC2)nc(C(C)(C)C)n1 [Compound 20, trans-N-[trans-4-[2-[4-(2,6-ditert-butylpyrimidin-4-yl)piperazin-1-yl]ethyl]cyclohexyl]-4-hydroxy-cyclohexanecarboxamide] | 20 to 120 µL/min/mg | ++ (++ >20)
CC(C)(C)c1nc(N2CCN(CC[C@H]3CC[C@H](NC(=O)[C@H]4CC[C@H](O)CC4)CC3)CC2)cc(C(F)(F)F)n1 [Compound 21, trans-N-[trans-4-[2-[4-[2-tert-butyl-6-(trifluoromethyl)pyrimidin-4-yl]piperazin-1-yl]ethyl]cyclohexyl]-4-hydroxy-cyclohexanecarboxamide] | 20 to 120 µL/min/mg | ++ (++ >20)
CC(C)(C)c1cc(N2CCN(CC[C@H]3CC[C@@H](NC(=O)[C@H]4CC[C@H](O)CC4)CC3)CC2)nc(C(C)(C)C)n1 [Compound 22, trans-N-[cis-4-[2-[4-(2,6-ditert-butylpyrimidin-4-yl)piperazin-1-yl]ethyl]cyclohexyl]-4-hydroxy-cyclohexanecarboxamide] | 20 to 120 µL/min/mg | +++ (+++ >50)
CC(C)(C)c1nc(N2CCN(CC[C@H]3CC[C@@H](NC(=O)[C@H]4CC[C@H](O)CC4)CC3)CC2)cc(C(F)(F)F)n1 [Compound 23, Trans-N-[cis-4-[2-[4-[2-tert-butyl-6-(trifluoromethyl)pyrimidin-4-yl]piperazin-1-yl]ethyl]cyclohexyl]-4-hydroxy-cyclohexanecarboxamide] | 20 to 120 µL/min/mg | +++ (+++ >50)
COCCc1cc(N2CCN(CC[C@H]3CC[C@H](NC(=O)[C@H]4CC[C@H](OC)CC4)CC3)CC2)nc(C(C)(C)C)n1 [Compound 24, trans-N-[trans-4-[2-[4-[2-tert-butyl-6-(2-methoxyethyl)pyrimidin-4-yl]piperazin-1-yl]ethyl]cyclohexyl]-4-methoxy-cyclohexanecarboxamide] | > 120 µL/min/mg | ++ (++ >20)
CC(C)(C)c1nc(N2CCN(CCC3CCC(NC(=O)C4CCC(O)CC4)CC3)CC2)cc(C2(C)CC2)n1 (centres unmarked) [Compound 27, N-[4-[2-[4-[2-tert-butyl-6-(1-methylcyclopropyl)pyrimidin-4-yl]piperazin-1-yl]ethyl]cyclohexyl]-4-hydroxy-cyclohexanecarboxamide] | 20 to 120 µL/min/mg | ++ (++ >20)
CC(C)(C)c1nc(N2CCN(CC[C@H]3CC[C@@H](NC(=O)[C@H]4CC[C@H](O)CC4)CC3)CC2)cc(C2(C)CC2)n1 [Compound 28, Trans-N-[cis-4-[2-[4-[2-tert-butyl-6-(1-methylcyclopropyl)pyrimidin-4-yl]piperazin-1-yl]ethyl]cyclohexyl]-4-hydroxy-cyclohexanecarboxamide] | 20 to 120 µL/min/mg | ++ (++ >20)
CC(C)(C)c1nc(C(F)F)cc(N2CCN(CCC3CCC(NC(=O)C4CCC(O)CC4)CC3)CC2)n1 (centres unmarked) [Compound 29, N-[4-[2-[4-[2-tert-butyl-6-(difluoromethyl)pyrimidin-4-yl]piperazin-1-yl]ethyl]cyclohexyl]-4-hydroxy-cyclohexanecarboxamide] | 20 to 120 µL/min/mg | + (+ >10)
CC(C)(C)c1nc(C(F)F)cc(N2CCN(CC[C@H]3CC[C@@H](NC(=O)[C@H]4CC[C@H](O)CC4)CC3)CC2)n1 [Compound 30, Trans-N-[cis-4-[2-[4-[2-tert-butyl-6-(difluoromethyl)pyrimidin-4-yl]piperazin-1-yl]ethyl]cyclohexyl]-4-hydroxy-cyclohexanecarboxamide] | 20 to 120 µL/min/mg | ++ (++ >20)
CC(C)c1cc(N2CCN(CCC3CCC(NC(=O)C4CCC(O)CC4)CC3)CC2)nc(C(C)(C)C)n1 (centres unmarked) [Compound 31, N-[4-[2-[4-(2-tert-butyl-6-isopropyl-pyrimidin-4-yl)piperazin-1-yl]ethyl]cyclohexyl]-4-hydroxy-cyclohexanecarboxamide] | 20 to 120 µL/min/mg | ++ (++ >20)
CC(C)c1cc(N2CCN(CC[C@H]3CC[C@H](NC(=O)[C@H]4CC[C@H](O)CC4)CC3)CC2)nc(C(C)(C)C)n1 [Compound 32, Trans-N-[trans-4-[2-[4-(2-tert-butyl-6-isopropyl-pyrimidin-4-yl)piperazin-1-yl]ethyl]cyclohexyl]-4-hydroxy-cyclohexanecarboxamide] | 20 to 120 µL/min/mg | ++ (++ >20)
COCCc1cc(N2CCN(CCC3CCC(NC(=O)C4CCC(O)CC4)CC3)C[C@H]2C)nc(C(C)(C)C)n1 (stereo partly drawn) [Compound 33, N-[4-[2-[(3R)-4-[2-tert-butyl-6-(2-methoxyethyl)pyrimidin-4-yl]-3-methyl-piperazin-1-yl]ethyl]cyclohexyl]-4-hydroxy-cyclohexanecarboxamide] | 20 to 120 µL/min/mg | +++ (+++ >50)
COCCc1cc(N2CCN(CC[C@H]3CC[C@H](NC(=O)[C@H]4CC[C@H](O)CC4)CC3)C[C@H]2C)nc(C(C)(C)C)n1 [Compound 34, trans-N-[trans-4-[2-[(3R)-4-[2-tert-butyl-6-(2-methoxyethyl)pyrimidin-4-yl]-3-methyl-piperazin-1-yl]ethyl]cyclohexyl]-4-hydroxy-cyclohexanecarboxamide] | 20 to 120 µL/min/mg | +++ (+++ >50)
CC(C)(C)c1nc(C2CCCC2)cc(N2CCN(CC[C@H]3CC[C@H](NC(=O)[C@H]4CC[C@H](O)CC4)CC3)CC2)n1 [Compound 35, trans-N-[trans-4-[2-[4-(2-tert-butyl-6-cyclopentyl-pyrimidin-4-yl)piperazin-1-yl]ethyl]cyclohexyl]-4-hydroxy-cyclohexanecarboxamide] | 20 to 120 µL/min/mg | + (+ >10)
CC(C)(C)c1nc(C2CCCC2)cc(N2CCN(CC[C@H]3CC[C@@H](NC(=O)[C@H]4CC[C@H](O)CC4)CC3)CC2)n1 [Compound 36, trans-N-[cis-4-[2-[4-(2-tert-butyl-6-cyclopentyl-pyrimidin-4-yl)piperazin-1-yl]ethyl]cyclohexyl]-4-hydroxy-cyclohexanecarboxamide] | 20 to 120 µL/min/mg | +++ (+++ >50)
COCc1cc(N2CCN(CC[C@H]3CC[C@H](NC(=O)[C@H]4CC[C@H](O)CC4)CC3)CC2)nc(C(C)(C)C)n1 [Compound 37, trans-N-[trans-4-[2-[4-[2-tert-butyl-6-(methoxymethyl)pyrimidin-4-yl]piperazin-1-yl]ethyl]cyclohexyl]-4-hydroxy-cyclohexanecarboxamide] | 20 to 120 µL/min/mg | +++ (+++ >50)
CC(C)(C)c1nc(C2CCC2)cc(N2CCN(CC[C@H]3CC[C@H](NC(=O)[C@H]4C[C@H](O)C4)CC3)CC2)n1.O=C(O)C(F)(F)F [Compound 38, trans-N-[trans-4-[2-[4-(2-tert-butyl-6-cyclobutyl-pyrimidin-4-yl)piperazin-1-yl]ethyl]cyclohexyl]-3-hydroxy-cyclobutanecarboxamide; 2,2,2-trifluoroacetic acid] | < 20 µL/min/mg | ++ (++ >20)

Reference: patent US9388148B2, “Acylaminocycloalkyl compounds suitable for treating disorders that respond to modulation of dopamine D3 receptor” (AbbVie Deutschland GmbH & Co. KG, priority 2013, dated 2016)
